The values below are quoted from earlier work in patent publication US20170340738A1, “STABLE ACIDIC INSULIN FORMULATIONS” (MERCK SHARP & DOHME CORP., priority 2012, published 2017).

For this data set the following is noted: administered once daily subcutaneously.

In the case of “Gly(A21), Arg(B31), Arg(B32)-human insulin [insulin glargine]”, the Basal coverage was 24 h.
